How the values were obtained:
Experiment in all cases: 96-well microtiter plate assay, fungal growth inhibition
F. oxysporum = format: cell-based, Fusarium oxysporum; conditions: F. oxysporum
From the text: (§1) Pathogen production. Isolates of Colletotrichum acutatum Simmonds, Colletotrichum fragariae Brooks, and Colletotrichum gloeosporioides (Penz.) Penz. & Sacc. in Penz. were obtained from B. J. Smith, USDA, ARS, Small Fruit Research Station, Poplarville, Miss. Colletotrichum fragariae (isolate CF63), C. acutatum (isolate CAGoff), and C. gloeosporioides (isolate CG162) were used for all pathogen and bioautography studies. Isolate CF63 is one of the most virulent isolates at infecting strawberry plants and inducing both crown and fruit rot (Smith and Black, 1990). CF63, CAGoff, and CG162 were used as standard test isolates because of our extensive knowledge of these isolates and their known fungicide sensitivity profiles in both bioautography and microtiter formats. The three Colletotrichum species were isolated from strawberry (Fragaria x ananassa Duchesne). Botrytis cinerea Pers.: Fr, was isolated from commercial grape (Vitis vinifera L.) and Fusarium oxysporum Schlechtend: Fr from orchid (Cynoches sp.). Phomopsis viticola (Sacc.) and P. obscurans (Ellis & Everh.) Sutton were from Mike A. Ellis, Ohio State University, Wooster, Ohio. Fungi were grown on potato-dextrose agar (PDA, Difco, Detroit, Mich.) in 9 cm petri dishes and incubated in a growth chamber at 24±2° C. and under cool-white fluorescent lights ([…]·m^−2·sec^−1 light) with 12 hour photoperiod.
(§2) Inoculum preparation. Conidia were harvested from 7-10 day-old cultures by flooding plates with 5 mL of sterile distilled water and dislodging conidia by softly brushing the colonies with an L-shaped glass rod. Conidial suspensions were filtered through sterile miracloth (Calbiochem-Novabiochem Corp., La Jolla, Calif.) to remove mycelia. Conidia concentrations were determined photometrically, from a standard curve based on the percent of transmittance (% T) at 625 nm and suspensions were then adjusted with sterile distilled water to a concentration of 1.0×10^6 conidia/mL.
(§3) Microtiter assay. A standardized 96-well microtiter plate assay developed for discovery of natural product fungicidal agents was used to evaluate naturally occurring antifungal agents from Macaranga monanara. A 96-well microtiter assay was used to determine sensitivity of B. cinerea, C. acutatum, C. fragariae, C. gloeosporioides, F. oxysporum, Phomopsis viticola, and P. obscurans to the various antifungal agents in comparison with known fungicidal standards. Vinclozolin, captan, and thiabendazole, which represent three different modes of action, were used as standards in this experiment. Each fungus was challenged in a dose-response format using test compounds where the final treatment concentrations were 0.3, 3.0 and 30.0 μM. Microtiter plates (Nunc MicroWell, untreated; Roskilde, Denmark) were covered with a plastic lid and incubated in a growth chamber as described previously for fungal growth. Growth was then evaluated by measuring absorbance of each well at 620 nm using a microplate photometer (Packard Spectra Count, Packard Instrument Co., Downers Grove, Ill.). Microtiter plates (Nunc MicroWell, untreated; Roskilde, Denmark) were covered with a plastic lid and incubated in a growth chamber at 24±1° C. and 12 hour photoperiod under 60±5 μmol light. Growth was then evaluated by measuring absorbance of each well at 620 nm using a microplate photometer (Packard Spectra Count, Packard Instrument Co., Downers Grove, Ill.).
(§4) Microbioassy Experimental Design. Chemical sensitivity each of B. cinerea, C. acutatum, C. fragariae, C. gloeosporiodes, F. oxysporum, Phomopsis viticola, and P. obscurans was evaluated using 96-well plate microbioassay format. Each chemical was evaluated in duplicate at each dose (0.3, 3.0 and 30.0 μM). […]

C. gloeosporioides = format: cell-based, Colletotrichum gloeosporioides; conditions: C. gloeosporioides
From the text: as §1, §2, §3, §4

C. fragariae = format: cell-based, Colletotrichum fragariae; conditions: C. fragariae
From the text: as §1, §2, §3, §4

C. acutatum = format: cell-based, Colletotrichum acutatum; conditions: C. acutatum
From the text: as §1, §2, §3, §4

B. cinerea = format: cell-based, Botrytis cinerea; conditions: B. cinerea
From the text: as §1, §2, §3, §4

Row | SMILES | Percent inhibition−Percent Stimulation±SEM (F. oxysporum; 0.3 μM, 48 hrs) [%] | Percent inhibition−Percent Stimulation±SEM (F. oxysporum; 0.3 μM, 72 hrs) [%] | Percent inhibition−Percent Stimulation±SEM (F. oxysporum; 3.0 μM, 48 hrs) [%] | Percent inhibition−Percent Stimulation±SEM (F. oxysporum; 3.0 μM, 72 hrs) [%] | Percent inhibition−Percent Stimulation±SEM (F. oxysporum; 30 μM, 48 hrs) [%] | Percent inhibition−Percent Stimulation±SEM (F. oxysporum; 30 μM, 72 hrs) [%] | Percent inhibition−Percent Stimulation±SEM (C. gloeosporioides; 0.3 μM, 48 hrs) [%] | Percent inhibition−Percent Stimulation±SEM (C. gloeosporioides; 0.3 μM, 72 hrs) [%] | Percent inhibition−Percent Stimulation±SEM (C. gloeosporioides; 3.0 μM, 48 hrs) [%] | Percent inhibition−Percent Stimulation±SEM (C. gloeosporioides; 3.0 μM, 72 hrs) [%] | Percent inhibition−Percent Stimulation±SEM (C. gloeosporioides; 30 μM, 48 hrs) [%] | Percent inhibition−Percent Stimulation±SEM (C. gloeosporioides; 30 μM, 72 hrs) [%] | Percent inhibition−Percent Stimulation±SEM (C. fragariae; 0.3 μM, 48 hrs) [%] | Percent inhibition−Percent Stimulation±SEM (C. fragariae; 0.3 μM, 72 hrs) [%] | Percent inhibition−Percent Stimulation±SEM (C. fragariae; 3.0 μM, 48 hrs) [%] | Percent inhibition−Percent Stimulation±SEM (C. fragariae; 3.0 μM, 72 hrs) [%] | Percent inhibition−Percent Stimulation±SEM (C. fragariae; 30 μM, 48 hrs) [%] | Percent inhibition−Percent Stimulation±SEM (C. fragariae; 30 μM, 72 hrs) [%] | Percent inhibition−Percent Stimulation±SEM (C. acutatum; 0.3 μM, 48 hrs) [%] | Percent inhibition−Percent Stimulation±SEM (C. acutatum; 0.3 μM, 72 hrs) [%] | also measured
1 | O=C1c2ccccc2-c2nccc3c(Br)cnc1c23 [4-bromosampangine] | −20.4 ± 4.6 | −2.8 ± 1.9 | −42.3 ± 4.5 | −14.0 ± 2.1 | −25.8 ± 2.6 | −9.1 ± 3.0 | −100.0 ± 1.5 | −99.0 ± 0.6 | −98.9 ± 0.5 | −99.1 ± 0.4 | −96.0 ± 1.4 | −99.7 ± 0.4 | −46.3 ± 5.0 | −15.2 ± 8.2 | −87.3 ± 2.0 | −45.8 ± 5.6 | −55.9 ± 7.1 | −26.7 ± 7.3 | −23.3 ± 8.0 | −7.1 ± 6.3 | Percent inhibition−Percent Stimulation±SEM (C. acutatum; 3.0 μM, 48 hrs): −73.4 ± 6.8%; Percent inhibition−Percent Stimulation±SEM (C. acutatum; 3.0 μM, 72 hrs): −24.9 ± 8.7%; Percent inhibition−Percent Stimulation±SEM (C. acutatum; 30 μM, 48 hrs): −33.4 ± 6.9%; Percent inhibition−Percent Stimulation±SEM (C. acutatum; 30 μM, 72 hrs): −10.5 ± 6.7%; Percent inhibition−Percent Stimulation±SEM (B. cinerea; 0.3 μM, 48 hrs): −41.1 ± 9.4%; Percent inhibition−Percent Stimulation±SEM (B. cinerea; 0.3 μM, 72 hrs): −22.6 ± 13.7%; Percent inhibition−Percent Stimulation±SEM (B. cinerea; 3.0 μM, 48 hrs): −59.2 ± 6.7%; Percent inhibition−Percent Stimulation±SEM (B. cinerea; 3.0 μM, 72 hrs): −38.8 ± 9.4%; Percent inhibition−Percent Stimulation±SEM (B. cinerea; 30 μM, 48 hrs): −29.7 ± 9.7%; Percent inhibition−Percent Stimulation±SEM (B. cinerea; 30 μM, 72 hrs): 2.5 ± 8.9%
2 | COc1cnc2c3c(nccc13)-c1ccccc1C2=O [4-methoxysampangine] | −10.3 ± 4.7 | 2.9 ± 4.2 | −66.8 ± 5.5 | −33.5 ± 1.9 | −43.6 ± 2.7 | −23.5 ± 1.6 | −48.5 ± 6.7 | −15.6 ± 1.9 | −94.4 ± 0.9 | −91.1 ± 2.1 | −95.9 ± 3.4 | −79.7 ± 6.0 | −15.0 ± 7.5 | −30.2 ± 7.4 | −75.2 ± 6.7 | −44.3 ± 6.5 | −67.9 ± 13.6 | −39.6 ± 6.3 | −5.1 ± 7.8 | −0.3 ± 6.4 | Percent inhibition−Percent Stimulation±SEM (C. acutatum; 3.0 μM, 48 hrs): −75.1 ± 6.8%; Percent inhibition−Percent Stimulation±SEM (C. acutatum; 3.0 μM, 72 hrs): −44.1 ± 6.5%; Percent inhibition−Percent Stimulation±SEM (C. acutatum; 30 μM, 48 hrs): −51.3 ± 6.2%; Percent inhibition−Percent Stimulation±SEM (C. acutatum; 30 μM, 72 hrs): −25.4 ± 5.4%; Percent inhibition−Percent Stimulation±SEM (B. cinerea; 0.3 μM, 48 hrs): −23.0 ± 14.4%; Percent inhibition−Percent Stimulation±SEM (B. cinerea; 0.3 μM, 72 hrs): −4.8 ± 12.6%; Percent inhibition−Percent Stimulation±SEM (B. cinerea; 3.0 μM, 48 hrs): −59.2 ± 6.7%; Percent inhibition−Percent Stimulation±SEM (B. cinerea; 3.0 μM, 72 hrs): −18.4 ± 5.4%; Percent inhibition−Percent Stimulation±SEM (B. cinerea; 30 μM, 48 hrs): −20.3 ± 21.8%; Percent inhibition−Percent Stimulation±SEM (B. cinerea; 30 μM, 72 hrs): 19.0 ± 14.3%
